Columns and labels:
Conditions in all cases: incubation time: 72 h
MDA-MB-436 [1] = assay: normalised viability (% of control), CellTiter-Blue; higher = more viable cells (about 100 = DMSO control)
How it was run: (§1)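 Vehicle (100) and a positive kill control (0) anchored the normalisation of each plate, and Z'-factor was used for quality control. Breast cancer cell lines in 20 µl suspension were incubated 72 h over compound in 5 µl medium in 384-well plates, followed by CellTiter-Blue at 560/590 nm. The value is normalised viability at a single listed concentration of the series.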

HDQ-P1 [2] = assay: as above
How it was run: as §1

CAL-120 [3] = assay: as above
How it was run: as §1

Hs578T [4] = assay: as above
How it was run: as §1

BT-549 [5] = assay: as above
How it was run: as §1

CAL-85-1 [6] = assay: as above
How it was run: as §1

HCC1937 = assay: drug sensitivity score (DSS), CellTiter-Glo (DSS (AUC-based score)); higher = stronger drug effect (viability inhibition or cytotoxicity); extreme values may be limits of the assay
How it was run: (§2)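 Breast cancer cell lines (20 µl suspension) were seeded into 384-well plates holding compound at 5 concentrations in 10-fold steps over a compound-specific 10,000-fold range, then incubated 72 h. CellTox Green fluorescence (485/520 nm) was read first, then CellTiter-Glo luminescence after 10 min at room temperature. Each plate was normalised to 0.1 % DMSO and a positive kill control. The drug sensitivity score was calculated from the area under the fitted dose-response curve.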

CAL-51 = assay: as above
How it was run: as §2

HCC1143 = assay: as above
How it was run: as §2

MDA-MB-436 [7] = assay: as above
How it was run: as §2

MDA-MB-453 = assay: as above
How it was run: as §2

HDQ-P1 [8] = assay: as above
How it was run: as §2

CAL-120 [9] = assay: as above
How it was run: as §2

DU-4475 = assay: as above
How it was run: as §2

MDA-MB-231 = assay: as above
How it was run: as §2

Hs578T [10] = assay: as above
How it was run: as §2

CAL-148 = assay: as above
How it was run: as §2

BT-474 = assay: as above
How it was run: as §2

MDA-MB-468 = assay: as above
How it was run: as §2

BT-549 [11] = assay: as above
How it was run: as §2

MCF-10A = assay: as above
How it was run: as §2

SK-BR-3 = assay: as above
How it was run: as §2

CAL-85-1 [12] = assay: as above
How it was run: as §2

HCC1599 = assay: as above
How it was run: as §2

MFM-223 = assay: as above
How it was run: as §2

SMILES	drug sensitivity score (HCC1937)	drug sensitivity score (CAL-51)	drug sensitivity score (HCC1143)	drug sensitivity score (MDA-MB-436 [7])	drug sensitivity score (MDA-MB-453)	drug sensitivity score (HDQ-P1 [8])	drug sensitivity score (CAL-120 [9])	drug sensitivity score (DU-4475)	drug sensitivity score (MDA-MB-231)	drug sensitivity score (Hs578T [10])	drug sensitivity score (CAL-148)	drug sensitivity score (BT-474)	drug sensitivity score (MDA-MB-468)	drug sensitivity score (BT-549 [11])	drug sensitivity score (MCF-10A)	drug sensitivity score (SK-BR-3)	drug sensitivity score (CAL-85-1 [12])	drug sensitivity score (HCC1599)	drug sensitivity score (MFM-223)	also measured
CO[C@@]12[C@H](COC(N)=O)C3=C(C(=O)C(C)=C(N)C3=O)N1C[C@@H]1N[C@@H]12 [Mitomycin C]	0	10.5	0	3.39	0	0.633	0.335	0	0	0	0	0	4.87	8.27	0	1.42	2.91	0	0	normalised viability (MDA-MB-436 [1]; 10 nM): 100%; normalised viability (MDA-MB-436 [1]; 1000 nM): 76.2%; normalised viability (MDA-MB-436 [1]; 10000 nM): 17.6%; normalised viability (HDQ-P1 [2]; 3 nM): 105%; normalised viability (HDQ-P1 [2]; 30 nM): 96.3%; normalised viability (HDQ-P1 [2]; 100 nM): 104%; normalised viability (CAL-120 [3]; 10 nM): 92.4%; normalised viability (CAL-120 [3]; 1000 nM): 91.5%; normalised viability (CAL-120 [3]; 10000 nM): 40.4%; normalised viability (Hs578T [4]; 10 nM): 113%; normalised viability (Hs578T [4]; 1000 nM): 98.9%; normalised viability (Hs578T [4]; 10000 nM): 5.32%; normalised viability (BT-549 [5]; 10 nM): 85%; normalised viability (BT-549 [5]; 1000 nM): 84.9%; normalised viability (BT-549 [5]; 10000 nM): 14.1%; normalised viability (CAL-85-1 [6]; 3 nM): 104%; normalised viability (CAL-85-1 [6]; 30 nM): 98.4%; normalised viability (CAL-85-1 [6]; 100 nM): 105%
Cc1cc(Nc2nc(N[C@@H](C)c3ncc(F)cn3)ncc2Cl)[nH]n1 [AZD1480]	0	0	0	0	0	0	0	0	0	0	0	0	0	0	0	0	0	0	5.17	normalised viability (MDA-MB-436 [1]; 1 nM): 109%; normalised viability (MDA-MB-436 [1]; 100 nM): 96.4%; normalised viability (MDA-MB-436 [1]; 1000 nM): 125%; normalised viability (HDQ-P1 [2]; 0.3 nM): 106%; normalised viability (HDQ-P1 [2]; 3 nM): 108%; normalised viability (HDQ-P1 [2]; 10 nM): 107%; normalised viability (CAL-120 [3]; 1 nM): 87.9%; normalised viability (CAL-120 [3]; 100 nM): 90.6%; normalised viability (CAL-120 [3]; 1000 nM): 72.1%; normalised viability (Hs578T [4]; 1 nM): 145%; normalised viability (Hs578T [4]; 100 nM): 102%; normalised viability (Hs578T [4]; 1000 nM): 80.4%; normalised viability (BT-549 [5]; 1 nM): 91.7%; normalised viability (BT-549 [5]; 100 nM): 108%; normalised viability (BT-549 [5]; 1000 nM): 90.4%; normalised viability (CAL-85-1 [6]; 0.3 nM): 102%; normalised viability (CAL-85-1 [6]; 3 nM): 91.4%; normalised viability (CAL-85-1 [6]; 10 nM): 96.4%
CC(C)(C)c1nc(-c2cccc(NS(=O)(=O)c3c(F)cccc3F)c2F)c(-c2ccnc(N)n2)s1 [Dabrafenib]	0	0	0	0	0	0	8.71	19	0	0.389	0	0	0	0	0	0	0	0	0	–
CC[C@H](CO)Nc1nc(NCc2ccccc2)c2ncn(C(C)C)c2n1 [Seliciclib]	0	2.74	0	0	0	0	0	0	0	0	0	0.844	0	1.15	0	0	0	0	0	–
O=[N+]([O-])c1ccc2c(c1)S(=O)(=O)C=C2 [Stattic]	15.3	18.1	6.56	9.28	12.6	6.75	7.49	5.46	14.4	14	11.9	9.26	24.4	20.4	5.13	8.62	17.8	7.71	14.8	–
CC1(COc2ccc3c(c2)ncn3-c2ccc3cccc(N4CCC(N)CC4)c3n2)COC1 [Crenolanib]	0.864	6.45	0	4.37	3.06	3.33	0	4.23	4.35	4.07	4.01	4.44	3.61	7.22	3.64	4.21	4.49	0.696	0	–
C=CCN(/C=C1/C(=O)O[C@H](COC)[C@@]2(C)C1=C(O)C(=O)C1=C2[C@H](OC(C)=O)C[C@]2(C)C(=O)CC[C@@H]12)CC=C [Sonolisib]	0	4.2	0	0	0	0	0	0	0	0	0	0	0	0.766	0	0	0	0	0	–

Reference: the supplement of paper PMC4862054
